Data reported in ChEMBL document CHEMBL3045705, “Thermal, kinetic, spectroscopic studies and anti-microbial, anti-tuberculosis, anti-oxidant properties of clioquinol and benzo-coumarin derivatives mixed complexes with copper ion” (2013).
≈ marks a conversion by molar mass, not a printed value.

How the values were obtained:
Assay type in all cases: functional
[1] = system: Mycobacterium tuberculosis; test: Growth inhibition of Mycobacterium tuberculosis H37Rv MTCC 200 at MIC after 28 days by micro dilution anti-microbial susceptibility test
[2] = system: Aspergillus niger; test: Antifungal activity against Aspergillus niger ATCC 64958 after 16 to 18 hr by Kirby-Bauer disc diffusion method
[3] = system: Mycobacterium tuberculosis; test: Antitubercular activity against Mycobacterium tuberculosis H37Rv MTCC 200 after 28 days by micro dilution anti-microbial susceptibility test; conditions: H37Rv MTCC 200, 672 h
[4] = system: Candida albicans; test: Antifungal activity against Candida albicans ATCC 66027 after 16 to 18 hr by Kirby-Bauer disk diffusion method
[5] = system: Bacillus subtilis; test: Antibacterial activity against Bacillus subtilis ATCC 11774 after 16 to 18 hr by Kirby-Bauer disk diffusion method
[6] = system: Streptococcus pyogenes; test: Antibacterial activity against Streptococcus pyogenes ATCC 12384 after 16 to 18 hr by Kirby-Bauer disc diffusion method
[7] = system: Pseudomonas aeruginosa; test: Antibacterial activity against Pseudomonas aeruginosa ATCC 25619 after 16 to 18 hr by Kirby-Bauer disc diffusion method
[8] = system: Escherichia coli; test: Antibacterial activity against Escherichia coli ATCC 25922 after 16 to 18 hr by Kirby-Bauer disc diffusion method

Row | Molecule | growth inhibition (GI) [1] | MIC [2] | MIC [3] | MIC [4] | MIC [5] | MIC [6] | MIC [7] | MIC [8]
1 | O=C(/C=C/c1ccc(Cl)cc1)c1cc2c(ccc3ccccc32)oc1=O | 88% | 200 µg/mL (≈ 554 µM) | 12.5 µg/mL (≈ 34.6 µM) | 200 µg/mL (≈ 554 µM) | 200 µg/mL (≈ 554 µM) | 100 µg/mL (≈ 277 µM) | 100 µg/mL (≈ 277 µM) | 100 µg/mL (≈ 277 µM)
2 | CCn1cc(C(=O)O)c(=O)c2cc(F)c(N3CCNCC3)cc21 [NORFLOXACIN] |  |  |  |  | 10 µg/mL (≈ 31.3 µM) | 10 µg/mL (≈ 31.3 µM) | 10 µg/mL (≈ 31.3 µM) | 10 µg/mL (≈ 31.3 µM)
3 | O=C(/C=C/c1ccccc1)c1cc2c(ccc3ccccc32)oc1=O | 18% | 200 µg/mL (≈ 613 µM) | 100 µg/mL (≈ 306 µM) | 400 µg/mL (≈ 1230 µM) | > 600 µg/mL | 400 µg/mL (≈ 1230 µM) | 400 µg/mL (≈ 1230 µM) | 400 µg/mL (≈ 1230 µM)
4 | O=C(/C=C/c1ccc([N+](=O)[O-])cc1)c1cc2c(ccc3ccccc32)oc1=O | 54% | 200 µg/mL (≈ 539 µM) | 50 µg/mL (≈ 135 µM) | 200 µg/mL (≈ 539 µM) | 200 µg/mL (≈ 539 µM) | 100 µg/mL (≈ 269 µM) | 200 µg/mL (≈ 539 µM) | 100 µg/mL (≈ 269 µM)
5 | O=C(/C=C/c1cccc(O)c1)c1cc2c(ccc3ccccc32)oc1=O | 23% | 200 µg/mL (≈ 584 µM) | 100 µg/mL (≈ 292 µM) | 200 µg/mL (≈ 584 µM) | 600 µg/mL (≈ 1750 µM) | 200 µg/mL (≈ 584 µM) | 200 µg/mL (≈ 584 µM) | 400 µg/mL (≈ 1170 µM)
6 | CC[C@@H](CO)NCCN[C@@H](CC)CO [ETHAMBUTOL] | 99% |  | 3.12 µg/mL (≈ 15.3 µM) |  |  |  |  | 
7 | O=C(/C=C/c1ccccc1[N+](=O)[O-])c1cc2c(ccc3ccccc32)oc1=O | 37% | 200 µg/mL (≈ 539 µM) | 50 µg/mL (≈ 135 µM) | 400 µg/mL (≈ 1080 µM) | 400 µg/mL (≈ 1080 µM) | 200 µg/mL (≈ 539 µM) | 400 µg/mL (≈ 1080 µM) | 200 µg/mL (≈ 539 µM)
8 | CN[C@@H]1[C@H](O[C@H]2[C@H](O[C@H]3[C@H](O)[C@@H](O)[C@H](N=C(N)N)[C@@H](O)[C@@H]3N=C(N)N)O[C@@H](C)[C@]2(O)C=O)O[C@@H](CO)[C@H](O)[C@H]1O [STREPTOMYCIN] | 98% |  | 6.25 µg/mL (≈ 10.7 µM) |  |  |  |  | 
9 | O=C(/C=C/c1ccc(O)cc1)c1cc2c(ccc3ccccc32)oc1=O | 46% | 400 µg/mL (≈ 1170 µM) | 50 µg/mL (≈ 146 µM) | 200 µg/mL (≈ 584 µM) | 400 µg/mL (≈ 1170 µM) | 400 µg/mL (≈ 1170 µM) | 200 µg/mL (≈ 584 µM) | 200 µg/mL (≈ 584 µM)
10 | OC(Cn1cncn1)(Cn1cncn1)c1ccc(F)cc1F [FLUCONAZOLE] |  | 10 µg/mL (≈ 32.7 µM) |  | 10 µg/mL (≈ 32.7 µM) |  |  |  | 
11 | NNC(=O)c1ccncc1 [ISONIAZID] | 99% |  | 0.25 µg/mL (≈ 1.82 µM) |  |  |  |  | 
12 | O=C(O)c1cn(C2CC2)c2cc(N3CCNCC3)c(F)cc2c1=O [CIPROFLOXACIN] |  |  |  |  | 5 µg/mL (≈ 15.1 µM) | 20 µg/mL (≈ 60.4 µM) | 10 µg/mL (≈ 30.2 µM) | 20 µg/mL (≈ 60.4 µM)
13 | NYSTATIN |  | 100 µg/mL |  | 100 µg/mL |  |  |  | 
14 | CC1(C)S[C@@H]2[C@H](NC(=O)[C@H](N)c3ccccc3)C(=O)N2[C@H]1C(=O)O [AMPICILLIN] |  |  |  |  | 100 µg/mL (≈ 286 µM) | 100 µg/mL (≈ 286 µM) | 100 µg/mL (≈ 286 µM) | 100 µg/mL (≈ 286 µM)
